# Values of other authors as cited in US12090420B2, “Systems and methods for recovering amines and their derivatives from aqueous mixtures” (INV Nylon Chemicals Americas, LLC, priority 2018, dated 2024).
# Read-outs that look alike come from different tables or passages of the source.
# Conditions: for Higher pKa / Lower pKa: diamines; for pKa: monoamines, single pKa taken as highest pKa
Compound,pKa,other results
"NCCCCN [1,4-butanediamine]",–,Higher pKa: 11.2; Lower pKa: 9.7
"NCCCCCN [1,5-pentanediamine]",–,Higher pKa (25° C.): 10.93; Lower pKa (25° C.): 10.05
"NCCCCCCN [1,6-hexanediamine]",–,Higher pKa (25° C.): 11.02; Lower pKa (25° C.): 10.24
CCc1ccccn1 [2-Ethylpyridine],5.89,–
CCCCCCN [Hexylamine],10.56,highest pKa value: 10.5
c1ccc2cnccc2c1 [Isoquinoline],5.42,–
CCCCCCCCN [Octylamine],10.65,–
CCCCCN [Pentylamine],10.63,–
CC(C)CN [iso-Butylamine],10.43,–

# Further lines, with some results ahead:
pKa,Compound,other results
5.52,Cc1cccnc1 [3-Methylpyridine],–
6.08,Cc1ccncc1 [4-Methylpyridine],–
5.58,c1ccc2c(c1)cnc1ccccc12 [Benzo[c]quinoline],–
10.67,CCCCCCCN [Heptylamine],–
10.63,CCCCCCCCCCCCCCCCN [Hexadecylamine],–
10.64,CCCCCCCCCN [Nonylamine],–
